Source: PMC4428032 (Bioconjugate Chemistry, 2015)

How the values were obtained:
[1] = cited from earlier work
[2] = T1 relaxivity measurements at 0.5 T; assay type: physicochemical; conditions: 20 MHz, 25 °C

SMILES | thermodynamic stability constant log K [1] | T1 relaxivity [2]
O=C([O-])CN1CCN(CC(=O)[O-])CCN(CC(=O)[O-])CC1.[Gd+3] [Gd-NOTA] | 14.3 | 
O=C([O-])CN1CCN(CC(=O)[O-])CCN(CC(=O)[O-])CC1.[Ga+3] [Ga-NOTA] | 31.0 | 
O=C([O-])CN1CCN(CC(=O)[O-])CCN(CC(=O)O)CCN(CC(=O)[O-])CC1.[Gd+3] [Gd-DOTA] | 24.7 | 
CNC[C@H](O)[C@@H](O)[C@H](O)[C@H](O)CO.CNC[C@H](O)[C@@H](O)[C@H](O)[C@H](O)CO.O=C([O-])CN(CCN(CC(=O)[O-])CC(=O)O)CCN(CC(=O)[O-])CC(=O)O.[Gd+3] [Magnevist] |  | 4.1 mM^–1 s^–1
